Measurements published in patent publication US9346824B2, “Cyclohexyl-4H,6H-5-oxa-2,3,10b-triaza-benzo[e]azulenes as V1a antagonists” (Hoffmann-La Roche Inc., priority 2011, dated 2016).

Each compound was assayed against T1, human V1a receptor (Homo sapiens, UniProt P37288) (assay: human V1a receptor binding (3H-Vasopressin SPA, membranes of transfected HEK293 cells)). Settings: HEK293 cell membranes, Ki by Cheng-Prussoff equation, read-out: pKi hV1a (converted).
T1 construct: expressed in transfected cells; host or cells: HEK293 cells, transiently transfected; cell membranes
T1 sequence (P37288 whole entry): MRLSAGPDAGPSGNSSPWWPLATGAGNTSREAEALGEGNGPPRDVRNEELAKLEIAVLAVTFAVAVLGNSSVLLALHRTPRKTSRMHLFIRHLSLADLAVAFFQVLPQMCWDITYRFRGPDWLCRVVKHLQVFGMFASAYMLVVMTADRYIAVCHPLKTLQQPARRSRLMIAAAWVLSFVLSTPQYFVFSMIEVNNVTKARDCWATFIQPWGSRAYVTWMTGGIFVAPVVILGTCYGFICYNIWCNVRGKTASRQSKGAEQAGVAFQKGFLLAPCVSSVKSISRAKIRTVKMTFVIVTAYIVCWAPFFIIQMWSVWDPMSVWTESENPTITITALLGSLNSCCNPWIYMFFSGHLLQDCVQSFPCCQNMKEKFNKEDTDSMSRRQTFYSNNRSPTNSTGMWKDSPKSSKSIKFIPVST
Method: The human V1a receptor was cloned by RT-PCR from total human liver RNA. The coding sequence was subcloned in an expression vector after sequencing to confirm the identity of the amplified sequence. […] Cell membranes were prepared from HEK293 cells transiently transfected with the expression vector and grown in 20 liter fermenters with the following protocol.
50 g of cells are resuspended in 30 ml freshly prepared ice cold Lysis buffer (50 mM HEPES, 1 mM EDTA, 10 mM MgCl2 adjusted to pH=7.4+complete cocktail of protease inhibitor (Roche Diagnostics)). Homogenized with Polytron for 1 min and sonicated on ice for 2×2 minutes at 80% intensity (Vibracell sonicator). The preparation is centrifuged 20 min at 500 g at 4° C., the pellet is discarded and the supernatant centrifuged 1 hour at 43′000 g at 4° C. (19,000 rpm). The pellet is resuspended in 12.5 ml Lysis buffer+12.5 ml Sucrose 20% and homogenized using a Polytron for 1-2 min. The protein concentration is determined by the Bradford method and aliquots are stored at −80° C. until use. For binding studies 60 mg Yttrium silicate SPA beads (Amersham) are mixed with an aliquot of membrane in binding buffer (50 mM Tris, 120 mM NaCl, 5 mM KCl, 2 mM CaCl2, 10 mM MgCl2) for 15 minutes with mixing. 50 μl of bead/membrane mixture is then added to each well of a 96 well plate, followed by 50 μl of 4 nM 3H-Vasopressin (American Radiolabeled Chemicals). For total binding measurement 100 μl of binding buffer are added to the respective wells, for non-specific binding 100 μl of […] cold vasopressin and for compound testing 100 μl of a serial dilution of each compound in 2% DMSO. The plate is incubated 1 h at room temperature, centrifuged 1 min at 1000 g and counted on a Packard Top-Count. Non-specific binding counts are subtracted from each well and data is normalized to the maximum specific binding set at 100%. To calculate an IC 50 the curve is fitted using a non-linear regression model (XLfit) and the Ki is calculated using the Cheng-Prussoff equation.
In the case of `Fc1cccnc1[C@H]1CC[C@H](c2nnc3n2-c2ccc(Cl)cc2COC3)CC1` [Example 1], the Ki is reported as 2.4 nM. `Clc1ccc2c(c1)COCc1nnc([C@H]3CC[C@H](c4noc5ccccc54)CC3)n1-2` [Example 2, 1-(4-Benzo[d]isoxazol-3-yl-cyclohexyl)-8-chloro-4H,6H-5-oxa-2,3,10b-triaza-benzo[e]azulene] gave a Ki of 7.41 nM. For `Clc1ccc2c(c1)COCc1nnc([C@H]3CC[C@H](c4nsc5ccccc54)CC3)n1-2` [Example 3, 1-(4-Benzo[d]isothiazol-3-yl-cyclohexyl)-8-chloro-4H,6H-5-oxa-2,3,10b-triaza-benzo[e]azulene], the Ki was 0.288 nM. In the case of `Cc1cc([C@H]2CC[C@H](c3nnc4n3-c3ccc(Cl)cc3COC4)CC2)no1` [Example 4, 8-Chloro-1-[4-(5-methyl-isoxazol-3-yl)-cyclohexyl]-4H,6H-5-oxa-2,3,10b-triaza-benzo[e]azulene], the Ki is reported as 3.98 nM. For `Clc1ccc2c(c1)COCc1nnc([C@H]3CC[C@H](c4onc5c4CCCC5)CC3)n1-2` [Example 5, 8-Chloro-1-[4-(4,5,6,7-tetrahydro-benzo[c]isoxazol-3-yl)-cyclohexyl]-4H,6H-5-oxa-2,3,10b-triaza-benzo[e]azulene], the Ki was 15.5 nM. With `Clc1ccc2c(c1)COCc1nnc([C@H]3CC[C@H](c4n[nH]c5c4CCCC5)CC3)n1-2` [Example 6, 8-Chloro-1-[4-(4,5,6,7-tetrahydro-1H-indazol-3-yl)-cyclohexyl]-4H,6H-5-oxa-2,3,10b-triaza-benzo[e]azulene] the Ki was 4.9 nM. `Cc1nc([C@H]2CC[C@H](c3nnc4n3-c3ccc(Cl)cc3COC4)CC2)no1` [Example 7, 8-Chloro-1-[4-(5-methyl-[1,2,4]oxadiazol-3-yl)-cyclohexyl]-4H,6H-5-oxa-2,3,10b-triaza-benzo[e]azulene] showed a Ki of 32.4 nM. In the case of `FC(F)(C1CCCC1)[C@H]1CC[C@H](c2nnc3n2-c2ccc(Cl)cc2COC3)CC1` [Example 8, 8-Chloro-1-[4-(cyclopentyl-difluoro-methyl)-cyclohexyl]-4H,6H-5-oxa-2,3,10b-triaza-benzo[e]azulene], the Ki is reported as 2.4 nM. With `CC(C)C[C@H]1CC[C@H](c2nnc3n2-c2ccc(Cl)cc2COC3)CC1` [Example 9, 8-Chloro-1-(4-isobutyl-cyclohexyl)-4H,6H-oxa-2,3,10b-triaza-benzo[e]azulene] the Ki was 25.7 nM.
